Data: the supplement of paper PMC10307832

Tests used:
Test in all cases: relative viability (nuclei count vs DMSO), 5 days (fraction); higher = more cells survive
Venetoclax + Tozasertib = compound: CC1(C)CCC(CN2CCN(c3ccc(C(=O)NS(=O)(=O)c4ccc(NCC5CCOCC5)c([N+](=O)[O-])c4)c(Oc4cnc5[nH]ccc5c4)c3)CC2)=C(c2ccc(Cl)cc2)C1 [Venetoclax] + Cc1cc(Nc2cc(N3CCN(C)CC3)nc(Sc3ccc(NC(=O)C4CC4)cc3)n2)n[nH]1 [Tozasertib] (partner 0.1 µM)
Summary of the method: (§1)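 Relative viability divides the nuclei count in treated wells by that in vehicle wells. Lung cancer cell lines were seeded in 1536-well plates, dosed by pin tool the next day, and fixed and stained after 5 days in one step with final 0.05% Triton X-100, 1% formaldehyde and 1 ug/ml Hoechst. Dosing was a single drug or a fixed anchor-drug dose plus five library-drug doses (not always all listed) in √10 steps, and values are medians of duplicate plates imaged at 4×.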

Selumetinib + Navitoclax = compound: Cn1cnc2c(F)c(Nc3ccc(Br)cc3Cl)c(C(=O)NOCCO)cc21 [Selumetinib] + CC1(C)CCC(c2ccc(Cl)cc2)=C(CN2CCN(c3ccc(C(=O)NS(=O)(=O)c4ccc(N[C@H](CCN5CCOCC5)CSc5ccccc5)c(S(=O)(=O)C(F)(F)F)c4)cc3)CC2)C1 [Navitoclax] (partner 0.5 µM)
Summary of the method: as §1

Selumetinib + Pemetrexed = compound: Cn1cnc2c(F)c(Nc3ccc(Br)cc3Cl)c(C(=O)NOCCO)cc21 [Selumetinib] + Nc1nc2[nH]cc(CCc3ccc(C(=O)N[C@@H](CCC(=O)O)C(=O)O)cc3)c2c(=O)[nH]1 [Pemetrexed] (partner 0.2 µM)
Summary of the method: as §1

Selumetinib + Crizotinib = compound: Cn1cnc2c(F)c(Nc3ccc(Br)cc3Cl)c(C(=O)NOCCO)cc21 [Selumetinib] + C[C@@H](Oc1cc(-c2cnn(C3CCNCC3)c2)cnc1N)c1c(Cl)ccc(F)c1Cl [Crizotinib] (partner 1 µM)
Summary of the method: as §1

Row | Cell Line | relative viability (Venetoclax + Tozasertib; first compound 0.01 µM) | relative viability (Venetoclax + Tozasertib; first compound 0.03162 µM) | relative viability (Venetoclax + Tozasertib; first compound 0.1 µM) | relative viability (Venetoclax + Tozasertib; first compound 0.3162 µM) | relative viability (Venetoclax + Tozasertib; first compound 1 µM) | relative viability (Selumetinib + Navitoclax; first compound 0.02 µM) | relative viability (Selumetinib + Navitoclax; first compound 0.06325 µM) | relative viability (Selumetinib + Navitoclax; first compound 0.2 µM) | relative viability (Selumetinib + Navitoclax; first compound 0.6325 µM) | relative viability (Selumetinib + Pemetrexed; first compound 0.02 µM) | relative viability (Selumetinib + Pemetrexed; first compound 0.06325 µM) | relative viability (Selumetinib + Pemetrexed; first compound 0.2 µM) | relative viability (Selumetinib + Pemetrexed; first compound 0.6325 µM) | relative viability (Selumetinib + Crizotinib; first compound 0.02 µM) | relative viability (Selumetinib + Crizotinib; first compound 0.06325 µM) | relative viability (Selumetinib + Crizotinib; first compound 0.2 µM) | relative viability (Selumetinib + Crizotinib; first compound 0.6325 µM)
1 | ChaGo-K-1 | 0.236 | 0.218 | 0.224 | 0.208 | 0.227 | 0.878 | 0.956 | 0.911 | 1.23 | 0.258 | 0.258 | 0.275 | 0.256 | 1.12 | 1.18 | 1.11 | 1.17
2 | COR-L 105 | 0.274 | 0.397 | 0.321 | 0.32 | 0.335 | 0.78 | 0.574 | 0.642 | 0.451 | 1.11 | 1.02 | 0.841 | 0.582 | 0.855 | 0.689 | 0.714 | 0.635
3 | NCI-H2009 | 0.775 | 0.748 | 0.743 | 0.759 | 0.538 | 1.07 | 0.935 | 0.673 | 0.554 | 1.03 | 0.945 | 0.792 | 0.45 | 0.765 | 0.623 | 0.53 | 0.336
4 | NCI-H2023 | 0.328 | 0.407 | 0.392 | 0.393 | 0.218 | 0.937 | 0.924 | 0.959 | 0.783 | 0.247 | 0.137 | 0.239 | 0.195 | 0.649 | 0.533 | 0.431 | 0.503
5 | SW 1573 | 0.217 | 0.206 | 0.207 | 0.137 | 0.171 | 0.965 | 0.853 | 0.716 | 0.729 | 0.82 | 0.725 | 0.857 | 0.769 | 0.762 | 0.683 | 0.639 | 0.597
6 | NCI-H2405 | 0.741 | 0.783 | 0.632 | 0.736 | 0.645 | 0.771 | 0.636 | 0.525 | 0.37 | 0.999 | 0.813 | 0.75 | 0.736 | 0.774 | 0.774 | 0.716 | 0.549
7 | HCC-44 | 0.747 | 0.978 | 0.894 | 0.791 | 0.715 | 0.986 | 0.847 | 0.794 | 0.836 | 0.635 | 0.748 | 0.684 | 0.75 | 0.883 | 0.753 | 0.876 | 0.876
8 | EMC-BAC-2 | 0.3 | 0.285 | 0.28 | 0.273 | 0.259 | 0.964 | 0.989 | 1.07 | 1.06 | 0.508 | 0.539 | 0.522 | 0.574 | 0.754 | 0.719 | 0.778 | 0.834
9 | NCI-H322M | 0.495 | 0.477 | 0.477 | 0.555 | 0.493 | 1.14 | 0.795 | 1.05 | 1.04 | 0.546 | 0.524 | 0.564 | 0.562 | 0.708 | 0.807 | 0.796 | 0.828
10 | NCI-H1944 | 0.267 | 0.246 | 0.238 | 0.273 | 0.228 | 0.97 | 0.945 | 0.756 | 0.779 | 0.573 | 0.476 | 0.405 | 0.484 | 1.03 | 0.887 | 0.497 | 0.71
11 | H3255 | 0.564 | 0.525 | 0.615 | 0.591 | 0.745 | 0.428 | 0.487 | 0.342 | 0.436 | 0.564 | 0.571 | 0.552 | 0.549 | 0.879 | 0.96 | 0.88 | 0.802
12 | NCI-H1993 | 0.588 | 0.561 | 0.614 | 0.58 | 0.607 | 0.801 | 0.79 | 0.749 | 0.648 | 0.614 | 0.571 | 0.553 | 0.651 | 0.781 | 0.766 | 0.749 | 0.748
13 | NCI-H460 | 0.473 | 0.387 | 0.126 | 0.266 | 0.25 | 1.18 | 0.916 | 0.86 | 0.578 | 0.0568 | 0.082 | 0.0617 | 0.0698 | 0.852 | 0.714 | 0.672 | 0.544
14 | NCI-H1437 | 0.392 | 0.426 | 0.408 | 0.376 | 0.336 | 1.07 | 0.856 | 0.75 | 0.487 | 0.302 | 0.253 | 0.246 | 0.259 | 0.922 | 0.896 | 0.829 | 0.561
15 | NCI-H2347 | 0.581 | 0.634 | 0.476 | 0.597 | 0.541 | 0.752 | 0.403 | 0.271 | 0.228 | 0.425 | 0.402 | 0.399 | 0.392 | 0.771 | 0.645 | 0.42 | 0.511
16 | LC-2-ad | 0.418 | 0.398 | 0.425 | 0.535 | 0.433 | 0.4 | 0.359 | 0.442 | 0.46 | 0.263 | 0.269 | 0.273 | 0.277 | 0.397 | 0.446 | 0.431 | 0.405
17 | SK-MES-1 | 0.824 | 0.968 | 0.958 | 0.852 | 0.708 | 1.41 | 1.32 | 1.26 | 1.06 | 0.875 | 0.746 | 0.737 | 0.461 | 1 | 0.905 | 0.974 | 0.741
